# Data published in PubChem BioAssay (NCI).
#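 Each compound was tested at five concentrations against cells in 96-well plates for 48 hours. Definition used: TGI = concentration required for complete inhibition of growth.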
# Assays:
# Experiment in all cases: NCI-60 cell line screen, 48 h
# NCI-H23 lung = system: NCI-H23 lung
# SK-MEL-28 melanoma = system: SK-MEL-28 melanoma
# RXF 393 renal = system: RXF 393 renal
# HOP-62 NSCLC = system: HOP-62 NSCLC
# RPMI-8226 leukemia = system: RPMI-8226 leukemia
# SN12C renal = system: SN12C renal
# MOLT-4 leukemia = system: MOLT-4 leukemia
# NCI-H226 lung = system: NCI-H226 lung
# HCC-2998 colon = system: HCC-2998 colon
# CCRF-CEM leukemia = system: CCRF-CEM leukemia
# U251 CNS = system: U251 CNS
# DU-145 prostate = system: DU-145 prostate
# MDA-N = system: MDA-N
# A549 NSCLC = system: A549 NSCLC
# MALME-3M melanoma = system: MALME-3M melanoma
# IGROV1 ovarian = system: IGROV1 ovarian
# SNB-75 CNS = system: SNB-75 CNS
# UO-31 renal = system: UO-31 renal
# T-47D breast = system: T-47D breast
# BT-549 breast = system: BT-549 breast
# HCT-116 colon = system: HCT-116 colon
# TK-10 renal = system: TK-10 renal
# SK-MEL-2 melanoma = system: SK-MEL-2 melanoma
# MDA-MB-435 = system: MDA-MB-435
# NCI-H460 lung = system: NCI-H460 lung
# A498 renal = system: A498 renal
# SK-OV-3 ovarian = system: SK-OV-3 ovarian
# SNB-19 CNS = system: SNB-19 CNS
# HT29 colon = system: HT29 colon
# HCT-15 colon = system: HCT-15 colon
# HL-60(TB) leukemia = system: HL-60(TB) leukemia
# SF-295 CNS = system: SF-295 CNS
# EKVX NSCLC = system: EKVX NSCLC
# K-562 leukemia = system: K-562 leukemia
# HS 578T breast = system: HS 578T breast
# PC-3 prostate = system: PC-3 prostate
# MCF7 breast = system: MCF7 breast
# UACC-257 melanoma = system: UACC-257 melanoma
# OVCAR-5 ovarian = system: OVCAR-5 ovarian
# ACHN renal = system: ACHN renal
# HOP-92 NSCLC = system: HOP-92 NSCLC
# SF-539 CNS = system: SF-539 CNS
# KM12 colon = system: KM12 colon
# OVCAR-3 ovarian = system: OVCAR-3 ovarian
# SK-MEL-5 melanoma = system: SK-MEL-5 melanoma
# UACC-62 melanoma = system: UACC-62 melanoma
# OVCAR-8 ovarian = system: OVCAR-8 ovarian
# 786-0 renal = system: 786-0 renal
# LOX IMVI melanoma = system: LOX IMVI melanoma
# SF-268 CNS = system: SF-268 CNS
# SW-620 colon = system: SW-620 colon
# M14 melanoma = system: M14 melanoma
# MDA-MB-231 breast = system: MDA-MB-231 breast
# CAKI-1 renal = system: CAKI-1 renal
# OVCAR-4 ovarian = system: OVCAR-4 ovarian
# NCI/ADR-RES ovarian = system: NCI/ADR-RES ovarian
# COLO 205 colon = system: COLO 205 colon
# NCI-H522 lung = system: NCI-H522 lung
# SR leukemia = system: SR leukemia
smiles,measurement,setting,value
CCCCCCOc1ccc(NC2=C(Cl)C(=O)c3cccnc3C2=O)cc1,TGI,NCI-H23 lung,3.7 µM
same,TGI,SK-MEL-28 melanoma,5.03 µM
same,TGI,RXF 393 renal,2.77 µM
same,TGI,HOP-62 NSCLC,5.83 µM
same,TGI,RPMI-8226 leukemia,2.53 µM
same,TGI,SN12C renal,4.08 µM
same,TGI,MOLT-4 leukemia,> 10 µM
same,TGI,NCI-H226 lung,3.58 µM
same,TGI,HCC-2998 colon,3.1 µM
same,TGI,CCRF-CEM leukemia,> 10 µM
same,TGI,U251 CNS,7.29 µM
same,TGI,DU-145 prostate,2.9 µM
same,TGI,MDA-N,3.18 µM
same,TGI,A549 NSCLC,4.25 µM
same,TGI,MALME-3M melanoma,4.85 µM
same,TGI,IGROV1 ovarian,3.62 µM
same,TGI,SNB-75 CNS,2.79 µM
same,TGI,UO-31 renal,2.47 µM
same,TGI,T-47D breast,3.78 µM
same,TGI,BT-549 breast,> 10 µM
same,TGI,HCT-116 colon,2.09 µM
same,TGI,TK-10 renal,9.49 µM
same,TGI,SK-MEL-2 melanoma,4.43 µM
same,TGI,MDA-MB-435,3.62 µM
same,TGI,NCI-H460 lung,3.8 µM
same,TGI,A498 renal,> 10 µM
same,TGI,SK-OV-3 ovarian,> 10 µM
same,TGI,SNB-19 CNS,> 10 µM
same,TGI,HT29 colon,6.66 µM
same,TGI,HCT-15 colon,3.96 µM
same,TGI,HL-60(TB) leukemia,3.78 µM
same,TGI,SF-295 CNS,> 10 µM
same,TGI,EKVX NSCLC,3.22 µM
same,TGI,K-562 leukemia,> 10 µM
same,TGI,HS 578T breast,> 10 µM
same,TGI,PC-3 prostate,> 10 µM
same,TGI,MCF7 breast,2.65 µM
same,TGI,UACC-257 melanoma,5.21 µM
same,TGI,OVCAR-5 ovarian,5.01 µM
same,TGI,ACHN renal,4.38 µM
same,TGI,HOP-92 NSCLC,3.53 µM
same,TGI,SF-539 CNS,4.19 µM
same,TGI,KM12 colon,2.97 µM
same,TGI,OVCAR-3 ovarian,2.85 µM
same,TGI,SK-MEL-5 melanoma,2.31 µM
same,TGI,UACC-62 melanoma,3.28 µM
same,TGI,OVCAR-8 ovarian,4.56 µM
same,TGI,786-0 renal,2.8 µM
same,TGI,LOX IMVI melanoma,2.81 µM
same,TGI,SF-268 CNS,5.31 µM
same,TGI,SW-620 colon,3.88 µM
same,TGI,M14 melanoma,2.87 µM
CC(C)CCCC(C)[C@H]1CC[C@H]2[C@@H]3CC[C@H]4C[C@@H](CCC=C(c5cc(Cl)c(O)c(C(=O)OC(C)(C)C)c5)c5cc(Cl)c(O)c(C(=O)OC(C)(C)C)c5)CC[C@]4(C)[C@H]3CC[C@]12C (some centres undefined),TGI,NCI-H23 lung,> 50 µM
same,TGI,SK-MEL-28 melanoma,> 50 µM
same,TGI,RXF 393 renal,> 50 µM
same,TGI,MDA-MB-231 breast,> 50 µM
same,TGI,HOP-62 NSCLC,> 50 µM
same,TGI,RPMI-8226 leukemia,> 50 µM
same,TGI,SN12C renal,> 50 µM
same,TGI,MOLT-4 leukemia,> 50 µM
same,TGI,HCC-2998 colon,> 50 µM
same,TGI,CCRF-CEM leukemia,> 50 µM
same,TGI,U251 CNS,> 50 µM
same,TGI,DU-145 prostate,> 50 µM
same,TGI,MDA-N,> 50 µM
same,TGI,A549 NSCLC,> 50 µM
same,TGI,IGROV1 ovarian,> 50 µM
same,TGI,SNB-75 CNS,> 50 µM
same,TGI,T-47D breast,> 50 µM
same,TGI,BT-549 breast,> 50 µM
same,TGI,HCT-116 colon,> 50 µM
same,TGI,SK-MEL-2 melanoma,> 50 µM
same,TGI,MDA-MB-435,> 50 µM
same,TGI,A498 renal,> 50 µM
same,TGI,SK-OV-3 ovarian,> 50 µM
same,TGI,SNB-19 CNS,> 50 µM
same,TGI,HT29 colon,> 50 µM
same,TGI,HCT-15 colon,> 50 µM
same,TGI,HL-60(TB) leukemia,> 50 µM
same,TGI,SF-295 CNS,> 50 µM
same,TGI,EKVX NSCLC,> 50 µM
same,TGI,K-562 leukemia,> 50 µM
same,TGI,CAKI-1 renal,> 50 µM
same,TGI,HS 578T breast,> 50 µM
same,TGI,OVCAR-4 ovarian,> 50 µM
same,TGI,PC-3 prostate,> 50 µM
same,TGI,MCF7 breast,> 50 µM
same,TGI,NCI/ADR-RES ovarian,> 50 µM
same,TGI,OVCAR-5 ovarian,> 50 µM
same,TGI,SF-539 CNS,> 50 µM
same,TGI,KM12 colon,> 50 µM
same,TGI,COLO 205 colon,> 50 µM
same,TGI,OVCAR-3 ovarian,> 50 µM
same,TGI,SK-MEL-5 melanoma,> 50 µM
same,TGI,UACC-62 melanoma,> 50 µM
same,TGI,786-0 renal,> 50 µM
same,TGI,LOX IMVI melanoma,> 50 µM
same,TGI,SF-268 CNS,> 50 µM
same,TGI,SW-620 colon,> 50 µM
same,TGI,M14 melanoma,> 50 µM
CC(C)(C)OC(=O)C1=C(C(=O)OC(C)(C)C)SC2(S1)C(C(=O)OC(C)(C)C)=C(C(=O)OC(C)(C)C)Sc1c2ssc1=O,TGI,NCI-H23 lung,> 100 µM
same,TGI,SK-MEL-28 melanoma,> 100 µM
same,TGI,RXF 393 renal,> 100 µM
same,TGI,MDA-MB-231 breast,> 100 µM
same,TGI,HOP-62 NSCLC,> 100 µM
same,TGI,RPMI-8226 leukemia,> 100 µM
same,TGI,SN12C renal,> 100 µM
same,TGI,MOLT-4 leukemia,95.9 µM
same,TGI,HCC-2998 colon,> 100 µM
same,TGI,CCRF-CEM leukemia,> 100 µM
same,TGI,U251 CNS,> 100 µM
same,TGI,DU-145 prostate,> 100 µM
same,TGI,MDA-N,> 100 µM
same,TGI,A549 NSCLC,> 100 µM
same,TGI,MALME-3M melanoma,> 100 µM
same,TGI,IGROV1 ovarian,> 100 µM
same,TGI,UO-31 renal,> 100 µM
same,TGI,T-47D breast,> 100 µM
same,TGI,BT-549 breast,> 100 µM
same,TGI,HCT-116 colon,> 100 µM
same,TGI,TK-10 renal,> 100 µM
same,TGI,SK-MEL-2 melanoma,> 100 µM
same,TGI,MDA-MB-435,> 100 µM
same,TGI,NCI-H460 lung,> 100 µM
same,TGI,A498 renal,> 100 µM
same,TGI,SK-OV-3 ovarian,> 100 µM
same,TGI,SNB-19 CNS,> 100 µM
same,TGI,HT29 colon,> 100 µM
same,TGI,NCI-H522 lung,> 100 µM
same,TGI,HCT-15 colon,> 100 µM
same,TGI,HL-60(TB) leukemia,> 100 µM
same,TGI,SF-295 CNS,> 100 µM
same,TGI,EKVX NSCLC,> 100 µM
same,TGI,K-562 leukemia,> 100 µM
same,TGI,CAKI-1 renal,> 100 µM
same,TGI,HS 578T breast,> 100 µM
same,TGI,OVCAR-4 ovarian,> 100 µM
same,TGI,PC-3 prostate,> 100 µM
same,TGI,MCF7 breast,> 100 µM
same,TGI,NCI/ADR-RES ovarian,> 100 µM
same,TGI,UACC-257 melanoma,> 100 µM
same,TGI,OVCAR-5 ovarian,> 100 µM
same,TGI,ACHN renal,> 100 µM
same,TGI,HOP-92 NSCLC,> 100 µM
same,TGI,KM12 colon,> 100 µM
same,TGI,COLO 205 colon,> 100 µM
same,TGI,OVCAR-3 ovarian,> 100 µM
same,TGI,SK-MEL-5 melanoma,> 100 µM
same,TGI,UACC-62 melanoma,> 100 µM
same,TGI,OVCAR-8 ovarian,> 100 µM
same,TGI,LOX IMVI melanoma,> 100 µM
same,TGI,SF-268 CNS,> 100 µM
same,TGI,SW-620 colon,> 100 µM
same,TGI,M14 melanoma,> 100 µM
Cc1ccc(/C=C2\NC(=S)N(CN3CCOCC3)C2=O)cc1,TGI,NCI-H23 lung,> 100 µM
same,TGI,SK-MEL-28 melanoma,> 100 µM
same,TGI,MDA-MB-231 breast,> 100 µM
same,TGI,HOP-62 NSCLC,> 100 µM
same,TGI,RPMI-8226 leukemia,> 100 µM
same,TGI,SN12C renal,> 100 µM
same,TGI,MOLT-4 leukemia,> 100 µM
same,TGI,NCI-H226 lung,> 100 µM
same,TGI,CCRF-CEM leukemia,> 100 µM
same,TGI,U251 CNS,> 100 µM
same,TGI,DU-145 prostate,> 100 µM
same,TGI,MDA-N,> 100 µM
same,TGI,A549 NSCLC,> 100 µM
same,TGI,MALME-3M melanoma,> 100 µM
same,TGI,IGROV1 ovarian,> 100 µM
same,TGI,SNB-75 CNS,> 100 µM
same,TGI,UO-31 renal,> 100 µM
same,TGI,HCT-116 colon,> 100 µM
same,TGI,TK-10 renal,> 100 µM
same,TGI,SK-MEL-2 melanoma,> 100 µM
same,TGI,MDA-MB-435,> 100 µM
same,TGI,A498 renal,> 100 µM
same,TGI,SK-OV-3 ovarian,> 100 µM
same,TGI,SNB-19 CNS,> 100 µM
same,TGI,HT29 colon,> 100 µM
same,TGI,HCT-15 colon,> 100 µM
same,TGI,SF-295 CNS,> 100 µM
same,TGI,EKVX NSCLC,> 100 µM
same,TGI,K-562 leukemia,> 100 µM
same,TGI,HS 578T breast,> 100 µM
same,TGI,OVCAR-4 ovarian,> 100 µM
same,TGI,PC-3 prostate,> 100 µM
same,TGI,MCF7 breast,> 100 µM
same,TGI,NCI/ADR-RES ovarian,> 100 µM
same,TGI,UACC-257 melanoma,> 100 µM
same,TGI,OVCAR-5 ovarian,> 100 µM
same,TGI,ACHN renal,> 100 µM
same,TGI,HOP-92 NSCLC,> 100 µM
same,TGI,KM12 colon,> 100 µM
same,TGI,COLO 205 colon,> 100 µM
same,TGI,OVCAR-3 ovarian,> 100 µM
same,TGI,SR leukemia,> 100 µM
same,TGI,SK-MEL-5 melanoma,> 100 µM
same,TGI,UACC-62 melanoma,> 100 µM
same,TGI,OVCAR-8 ovarian,> 100 µM
same,TGI,786-0 renal,> 100 µM
same,TGI,LOX IMVI melanoma,> 100 µM
same,TGI,SF-268 CNS,> 100 µM
same,TGI,SW-620 colon,> 100 µM
same,TGI,M14 melanoma,> 100 µM
